# Data: US10092575B2, “Substituted thiophene- and furan-fused azolopyrimidine-5-(6H)-one compounds” (DART NEUROSCIENCE (CAYMAN) LTD., priority 2012, dated 2018)
# Target: human PDE1b enzyme (Homo sapiens (Human), UniProt Q01064)
# Assay: PDE1b inhibitory assay (IMAP TR-FRET)
# Conditions: not given
row,Structure (SMILES),EC50 [nM]
1,"COc1ccc(Cn2c(=O)n3ncnc3c3c(CN4CCCC(CO)(CC(C)C)C4)csc32)cc1 (stereo not drawn) [Example 195, 9-((3-(Hydroxymethyl)-3-isobutylpiperidin-1-yl)methyl)-6-(4-methoxybenzyl)thieno[3,2-e][1,2,4]triazolo[1,5-c]pyrimidin-5(6H)-one]",100 to 1000
2,"CC1(C)Cc2c(sc3c2c2ncnn2c(=O)n3Cc2ccc(Cl)cc2)CO1 [Example 83, 6-(4-Chlorobenzyl)-10,10-dimethyl-6,8,10,11-tetrahydro-5H-pyrano[4′,3′:4,5]thieno[3,2-e][1,2,4]triazolo[1,5-c]pyrimidin-5-one]",100 to 1000
3,"COc1ccc(Cn2c(=O)n3ncnc3c3cc(CN(C)C4CCOCC4)sc32)cc1 [Example 204, 6-(4-Methoxybenzyl)-8-((methyl(tetrahydro-2H-pyran-4-yl)amino)methyl)thieno[3,2-e][1,2,4]triazolo[1,5-c]pyrimidin-5(6H)-one]",1000 to 10000
4,"O=c1n(Cc2ccc(Cl)c(F)c2)c2sc3c(c2c2ncnn12)CCOC3 [Example 93, 6-(4-Chloro-3-fluorobenzyl)-6,8,10,11-tetrahydro-5H-pyrano[4′,3′:4,5]thieno[3,2-e][1,2,4]triazolo[1,5-c]pyrimidin-5-one]",100 to 1000
5,"Cc1csc2c1c1ncnn1c(=O)n2Cc1cccc(Cl)c1 [Example 11, 6-(3-Chlorobenzyl)-9-methylthieno[3,2-e][1,2,4]triazolo[1,5-c]pyrimidin-5(6H)-one]",100 to 1000
6,"COc1ccc(Cn2c(=O)n3nccc3c3cc(CN4CCOCC4)sc32)cc1 [Example 82, 4-(4-Methoxybenzyl)-2-(morpholinomethyl)pyrazolo[1,5-c]thieno[3,2-e]pyrimidin-5(4H)-one]",100 to 1000
7,"O=c1n(Cc2ccccc2Cl)c2sccc2c2ncnn12 [Example 1, 6-(2-Chlorobenzyl)thieno[3,2-e][1,2,4]triazolo[1,5-c]pyrimidin-5(6H)-one]",1000 to 10000
8,"O=c1n(Cc2ccccc2)c2sccc2c2ncnn12 [Example 24, 6-Benzylthieno[3,2-e][1,2,4]triazolo[1,5-c]pyrimidin-5(6H)-one]",1000 to 10000
9,"COc1ccc(Cn2c(=O)n3ncnc3c3c(C)c(CN4CCCC4)sc32)cc1 [Example 43, 6-(4-Methoxybenzyl)-9-methyl-8-(pyrrolidin-1-ylmethyl)thieno[3,2-e][1,2,4]triazolo[1,5-c]pyrimidin-5(6H)-one]",100 to 1000
10,"COc1ccc(Cn2c(=O)n3ncnc3c3c4c(sc32)NCCC4)cc1OC [Example 100, 6-(3,4-Dimethoxybenzyl)-8,9,10,11-tetrahydropyrido[3′,2′:4,5]thieno[3,2-e][1,2,4]triazolo[1,5-c]pyrimidin-5(6H)-one]",1000 to 10000
11,CCN(Cc1cc2c(s1)n(Cc1ccc(OC)cc1)c(=O)n1ncnc21)C1CCOC(C)(C)C1 (stereo not drawn) [Example 196],1000 to 10000
12,"COc1ccc(Cn2c(=O)n3ncnc3c3cc(CN4CCOCC4)sc32)c(F)c1 [Example 208, 6-(2-Fluoro-4-methoxybenzyl)-8-(morpholinomethyl)thieno[3,2-e][1,2,4]triazolo[1,5-c]pyrimidin-5(6H)-one]",100 to 1000
13,"O=c1n(Cc2ccc(Cl)cc2F)c2sc3c(c2c2ncnn12)CCOC3 [Example 94, 6-(4-Chloro-2-fluorobenzyl)-6,8,10,11-tetrahydro-5H-pyrano[4′,3′:4,5]thieno[3,2-e][1,2,4]triazolo[1,5-c]pyrimidin-5-one]",100 to 1000
14,"O=c1n(Cc2ccc(Cl)cc2)c2sc3c(c2c2ncnn12)CCNC3 [Example 99, 6-(4-Chlorobenzyl)-8,9,10,11-tetrahydropyrido[4′,3′:4,5]thieno[3,2-e][1,2,4]triazolo[1,5-c]pyrimidin-5(6H)-one]",1000 to 10000
15,"COc1ccc(Cn2c(=O)n3ncnc3c3c4c(sc32)CCNC4)cc1 [Example 184, 6-(4-Methoxybenzyl)-8,9,10,11-tetrahydropyrido[3′,4′:4,5]thieno[3,2-e][1,2,4]triazolo[1,5-c]pyrimidin-5(6H)-one]",100 to 1000
16,"CC(C)CCc1cc2c(s1)n(Cc1ccccc1)c(=O)n1ncnc21 [Example 25, 6-Benzyl-8-isopentylthieno[3,2-e][1,2,4]triazolo[1,5-c]pyrimidin-5(6H)-one]",100 to 1000
17,"COc1ccc(Cn2c(=O)n3ncnc3c3c4c(sc32)CN(CC(C)C)CC4(F)F)cc1 [Example 218, 11,11-Difluoro-9-isobutyl-6-(4-methoxybenzyl)-8,9,10,11-tetrahydropyrido[4′,3′:4,5]thieno[3,2-e][1,2,4]triazolo[1,5-c]pyrimidin-5 (6H)-one]",100 to 1000
18,"CC(C)CCc1cc2c(s1)n(Cc1ccc(Cl)cc1)c(=O)n1ncnc21 [Example 23, 6-(4-Chlorobenzyl)-8-isopentylthieno[3,2-e][1,2,4]triazolo[1,5-c]pyrimidin-5(6H)-one]",100 to 1000

# Same assay, conditions: negative log of half-maximal molar inhibitory concentration; 200 nM FAM-cAMP; reported as ranges
row,Structure (SMILES),PDE1b (pEC50)
1,"COc1ccc(Cn2c(=O)n3ncnc3c3cc(CN4CC5(CCOCC5)C4)sc32)cc1 [Example 38, 8-(7-Oxa-2-azaspiro[3.5]nonan-2-ylmethyl)-6-(4-methoxybenzyl)thieno[3,2-e][1,2,4]triazolo[1,5-c]pyrimidin-5(6H)-one]",>7
2,COc1ccc(Cn2c(=O)n3ncnc3c3cc(CN4CCOC(C)(C)C4)sc32)cc1 [Example 36],>7
3,"COc1ccc(Cn2c(=O)n3ncnc3c3c(C)c(CN4CCOCC4)sc32)cc1 [Example 44, 6-(4-Methoxybenzyl)-9-methyl-8-(morpholinomethyl)thieno[3,2-e][1,2,4]triazolo[1,5-c]pyrimidin-5(6H)-one]",>7
4,"COc1ccc(Cn2c(=O)n3ncnc3c3c(C)c(CN(C)C)sc32)cc1 [Example 45, 8-((Dimethylamino)methyl)-6-(4-methoxybenzyl)-9-methylthieno[3,2-e][1,2,4]triazolo[1,5-c]pyrimidin-5(6H)-one]",>7
5,"COc1ccc(Cn2c(=O)n3ncnc3c3c(C)c(CN4CCN(C)C(C)(C)C4)sc32)cc1 [Example 74, 6-(4-Methoxybenzyl)-9-methyl-8-((3,3,4-trimethylpiperazin-1-yl)methyl)thieno[3,2-e][1,2,4]triazolo[1,5-c]pyrimidin-5(6H)-one]",>7
6,"COc1ccc(Cn2c(=O)n3ncnc3c3c(C)c(CN4C[C@@H](C)O[C@@H](C)C4)sc32)cc1 [Example 55, 8-(((2S,6R)-2,6-Dimethylmorpholino)methyl)-6-(4-methoxybenzyl)-9-methylthieno[3,2-e][1,2,4]triazolo[1,5-c]pyrimidin-5(6H)-one]",>7
7,COc1ccc(Cn2c(=O)n3ncnc3c3c4c(sc32)CN(Cc2scnc2C)CC4)cc1 [Example 123],>7
8,"COc1ccc(Cn2c(=O)n3ncnc3c3cc(CN4CCCOCC4)sc32)cc1 [Example 29, 8-((1,4-Oxazepan-4-yl)methyl)-6-(4-methoxybenzyl)thieno[3,2-e][1,2,4]triazolo[1,5-c]pyrimidin-5(6H)-one]",>7
9,"O=C(c1cnccn1)N1CCc2c(sc3c2c2ncnn2c(=O)n3Cc2ccc(Cl)cc2)C1 [Example 157, 6-(4-Chlorobenzyl)-9-(pyrazine-2-carbonyl)-8,9,10,11-tetrahydropyrido[4′,3′:4,5]thieno[3,2-e][1,2,4]triazolo[1,5-c]pyrimidin-5(6H)-one]",>7
10,"COc1ccc(Cn2c(=O)n3ncnc3c3c4c(sc32)CN(C(=O)OC(C)(C)C)CC4)cc1 [Example 80, tert-Butyl 6-(4-methoxybenzyl)-5-oxo-5,6,10,11-tetrahydropyrido[4′,3′:4,5]thieno[3,2-e][1,2,4]triazolo[1,5-c]pyrimidine-9(8H)-carboxylate]",>7
11,"COc1ccc(Cn2c(=O)n3ncnc3c3c(C)c(CN4CCOC(C)(C)C4)sc32)cc1 [Example 69, 8-((2,2-Dimethylmorpholino)methyl)-6-(4-methoxybenzyl)-9-methylthieno[3,2-e][1,2,4]triazolo[1,5-c]pyrimidin-5(6H)-one]",>7
12,"COc1ccc(Cn2c(=O)n3ncnc3c3c4c(sc32)COCC4)cc1 [Example 90, 6-(4-Methoxybenzyl)-6,8,10,11-tetrahydro-5H-pyrano[4′,3′:4,5]thieno[3,2-e][1,2,4]triazolo[1,5-c]pyrimidin-5-one]",>7
13,"O=c1n(Cc2ccc(F)c(Cl)c2)c2sc(CN3CCOCC3)cc2c2ncnn12 [Example 209, 6-(3-Chloro-4-fluorobenzyl)-8-(morpholinomethyl)thieno[3,2-e][1,2,4]triazolo[1,5-c]pyrimidin-5(6H)-one]",>7
14,"COc1ccc(Cn2c(=O)n3ncnc3c3c4c(sc32)CN(Cc2ccccc2F)CC4)cc1 [Example 128, 9-(2-Fluorobenzyl)-6-(4-methoxybenzyl)-8,9,10,11-tetrahydropyrido[4′,3′:4,5]thieno[3,2-e][1,2,4]triazolo[1,5-c]pyrimidin-5(6H)-one]",>7
15,"COc1ccc(Cn2c(=O)n3ncnc3c3cc(CN4CCCN(C(C)=O)CC4)sc32)cc1 [Example 193, 8-((4-Acetyl-1,4-diazepan-1-yl)methyl)-6-(4-methoxybenzyl)thieno[3,2-e][1,2,4]triazolo[1,5-c]pyrimidin-5(6H)-one]",>7
16,"COc1ccc(Cn2c(=O)n3ncnc3c3c4c(sc32)N(CC2CCOC2)CCC4)cc1 (stereo not drawn) [Example 150, 6-(4-Methoxybenzyl)-8-((tetrahydrofuran-3-yl)methyl)-8,9,10,11-tetrahydropyrido[3′,2′:4,5]thieno[3,2-e][1,2,4]triazolo[1,5-c]pyrimidin-5(6H)-one]",>7
17,"COC[C@@H]1CCCN1Cc1sc2c(c1C)c1ncnn1c(=O)n2Cc1ccc(OC)cc1 [Example 58, (S)-6-(4-Methoxybenzyl)-8-((2-(methoxymethyl)pyrrolidin-1-yl)methyl)-9-methylthieno[3,2-e][1,2,4]triazolo[1,5-c]pyrimidin-5(6H)-one]",>7
18,"O=c1n(Cc2ccc(-c3ccccc3)cc2)c2sccc2c2ncnn12 [Example 4, 6-([1,1′-Biphenyl]-4-ylmethyl)thieno[3,2-e][1,2,4]triazolo[1,5-c]pyrimidin-5(6H)-one]",<5
